Measured values: patent US9332761B2, “Synergistic combination of a chlorotoluron compound and zinc pyrithione for dry film protection” (Rohm and Haas Company, priority 2013, dated 2016)

Tested on: Chlorella sp. ATCC 7516
Assay: Algal efficacy testing of dry paint films (modified ASTM 5589, 6-well plates)
Assay type: cell-based
Settings: 3 weeks; for Total conc, ppm (minimum total biocide concentration in paint reaching pass level): pass level >=75% algal growth inhibition, acrylic/silicone paint film on filter paper
Procedure: These paints were then diluted with an antimicrobial free acrylic/silicone based paint and mixed to prepare targeted concentrations of antimicrobial compounds for the testing. The total biocides concentrations tested were 125, 250, 500, 1000, 2000 and 5000 ppm. After biocides addition or dilution, the paints were mixed 90 seconds with the horse power shaker (AXEL 75M3372/Agitateur SO-10MI) until uniformity was achieved. Paints containing different antimicrobial compounds at the same levels were mixed together in order to obtain the desired ratio of antimicrobial compounds. After one day, the paints were applied to Schleicher & Schuell filter paper at 280 μm wft and dried for 3 days at room temperature avoiding direct exposure to sunlight. Square discs (1.6 cm×1.6 cm) were cut out from each panel and were used as the substrate for algal efficacy tests. This sample size allowed for an agar border when the sample disc was placed into the well of the test plate.
Algal efficacy was tested according to modified ASTM 5589 which is a standard accelerated test method for determining resistance of various coatings (including paints) to algal defacement. To accommodate for high-throughput screening, this method was scaled down from petri dishes to 6-well plates. Bold Modified Basal Freshwater Nutrient Solution was used as growth medium. A single coated filter paper coupon was placed with a pair of sterile forceps at the center of the agar plug (on top) with the painted surface facing upwards.
Each well that contains a tested coupon was inoculated with 1750 μl of algal suspensions (1×10^6 cfu/ml) making sure that the whole surface (paint film as well as the agar surrounding it) was evenly covered. The plates were incubated at room temp (21° C.-25° C.) with cyclic exposure to light and dark phases, for a period of three weeks.
At the end of the three week incubation period, the samples were scored for percent inhibition regarding color intensity compared to the blank sample.
The Synergy Index calculation was performed as follows.
The SI is calculated based on F. C.
SI value of <1 in the formula indicates a synergism of the blended biocides exists.
The minimal targeted inhibition was set at 75%, meaning a coupon with at least 75% algal growth inhibition was considered as a pass.

[O-][n+]1ccccc1[S][Zn][S]c1cccc[n+]1[O-] [ZnPT, bis(2-pyridylthio)zinc 1,1′-dioxide]
% inhibition (at total conc 500 ppm in paint): 95% | Total conc, ppm (minimum total biocide concentration in paint reaching pass level): 500 ppm

Cc1ccc(NC(=O)N(C)C)cc1Cl [Chlorotoluron, N′-(3-chloro-4-methylphenyl)-N,N-dimethylurea]
Total conc, ppm (minimum total biocide concentration in paint reaching pass level): 1000 ppm | inhibition at 1000 ppm (504 h, at total conc 1000 ppm in paint): 100%
